Results on 27 compounds are retold here after ChEMBL document CHEMBL3745631, “Discovery of highly potent and selective Bruton's tyrosine kinase inhibitors: Pyridazinone analogs with improved metabolic stability” (Bioorg Med Chem Lett, 2016).

Molecules are shown by their SMILES.

Series [1] relates to Liver microsome. Briefly: Intrinsic clearance in human liver microsomes at 1 uM by LC-MS/MS analysis in absence of NADPH. It is filed as ADME. (In general: Liver microsomes are a subcellular fraction often used to study metabolism.)
Series [2] concerns Liver microsome. As to the kind of experiment: Intrinsic clearance in human liver microsomes at 1 uM by LC-MS/MS analysis in presence of NADPH. The format is ADME.
Series [3] concerns the target Tyrosine-protein kinase BTK (Mus musculus, UniProt P35991). As to the kind of experiment: Inhibition of BTK in Balb/c mouse B cells assessed as inhibition of anti-IgM-stimulated CD86 expression by flow cytometry. The format is cell-based. (A flow cytometer gives signals particle by particle.)
The test system of series [4] is Hepatocyte. Briefly: Intrinsic clearance in human hepatocytes at 1 uM by LC-MS/MS analysis. It is filed as ADME, cell-based.
Series [5] concerns the target Tyrosine-protein kinase BTK (Homo sapiens, UniProt Q06187). Briefly: Inhibition of BTK (unknown origin) by Lanthascreen assay.

Tyrosine-protein kinase BTK (Homo sapiens, UniProt Q06187), sequence (Q06187 whole entry): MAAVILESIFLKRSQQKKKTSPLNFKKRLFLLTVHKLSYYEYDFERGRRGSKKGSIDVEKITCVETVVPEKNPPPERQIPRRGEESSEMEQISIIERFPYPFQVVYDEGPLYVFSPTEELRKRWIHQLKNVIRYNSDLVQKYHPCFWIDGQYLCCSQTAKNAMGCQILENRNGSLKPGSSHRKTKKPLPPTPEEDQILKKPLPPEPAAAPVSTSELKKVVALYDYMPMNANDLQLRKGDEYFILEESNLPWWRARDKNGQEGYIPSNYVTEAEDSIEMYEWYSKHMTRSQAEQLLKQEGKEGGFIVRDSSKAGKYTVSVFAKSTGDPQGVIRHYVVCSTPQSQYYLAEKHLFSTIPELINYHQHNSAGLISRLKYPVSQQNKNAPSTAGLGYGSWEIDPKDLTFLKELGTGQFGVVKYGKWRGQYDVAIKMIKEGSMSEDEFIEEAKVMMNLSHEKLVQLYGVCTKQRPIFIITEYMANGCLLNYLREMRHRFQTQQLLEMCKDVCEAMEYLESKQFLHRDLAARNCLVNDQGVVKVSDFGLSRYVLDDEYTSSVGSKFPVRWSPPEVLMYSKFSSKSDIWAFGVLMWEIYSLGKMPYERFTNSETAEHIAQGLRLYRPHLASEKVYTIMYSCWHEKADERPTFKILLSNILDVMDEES
Tyrosine-protein kinase BTK (Mus musculus, UniProt P35991), sequence (P35991 whole entry): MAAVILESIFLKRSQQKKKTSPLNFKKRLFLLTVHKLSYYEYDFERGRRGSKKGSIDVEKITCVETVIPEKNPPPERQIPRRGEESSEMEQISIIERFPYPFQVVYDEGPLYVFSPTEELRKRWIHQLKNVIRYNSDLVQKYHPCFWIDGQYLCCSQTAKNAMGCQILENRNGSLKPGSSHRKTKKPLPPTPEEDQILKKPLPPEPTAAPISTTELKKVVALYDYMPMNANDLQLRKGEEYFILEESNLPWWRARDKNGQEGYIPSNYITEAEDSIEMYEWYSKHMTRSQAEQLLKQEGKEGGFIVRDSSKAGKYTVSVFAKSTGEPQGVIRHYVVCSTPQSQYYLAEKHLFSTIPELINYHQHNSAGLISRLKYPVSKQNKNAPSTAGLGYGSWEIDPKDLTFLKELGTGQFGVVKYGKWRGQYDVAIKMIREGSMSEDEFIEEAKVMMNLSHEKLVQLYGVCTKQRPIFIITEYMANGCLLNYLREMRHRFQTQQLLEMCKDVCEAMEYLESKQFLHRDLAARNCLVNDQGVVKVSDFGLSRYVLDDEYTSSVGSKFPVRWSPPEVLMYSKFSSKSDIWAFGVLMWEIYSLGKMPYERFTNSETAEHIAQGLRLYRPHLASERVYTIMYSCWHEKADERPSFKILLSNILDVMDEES

The term IC50 denotes the midpoint of a concentration-inhibition curve. Take `Cc1ccc(-c2cc(Nc3cc4n(n3)CCN(C)C4)c(=O)[nH]n2)c(C)c1NC(=O)c1cc2ccccc2s1`: the CLH in series [1] is under 6 mL/min/kg; in series [2], over 15 mL/min/kg. The IC50 in series [3] stood at 387 nM.

`Cc1c(-c2cn(C)c(=O)c(Nc3ccc(C4C(=O)N(C)CCN4C)cc3)n2)ccc(Cl)c1NC(=O)c1cc2c(s1)CCCC2` (racemic): the CLH in series [1] is 6 mL/min/kg.

As for `Cc1c(-c2cn(C)c(=O)c(Nc3ccc(C4C(=O)N(C)CCN4C)cc3)n2)ccc(F)c1NC(=O)c1cc2c(s1)CCCC2` (stereo in doubt; 13), in series [1], the CLH came to 6 mL/min/kg.

`CN1CCN(C)C(c2ccc(Nc3nc(-c4ccc(Cl)c(NC(=O)c5cc6c(s5)CCCC6)c4)cn(C)c3=O)cc2)C1=O` (racemic): the CLH in series [1] was determined as 6 mL/min/kg.

For the compound `CN1CCN(C)C(c2ccc(Nc3nc(-c4cccc(NC(=O)c5cc6c(s5)CCCC6)c4F)cn(C)c3=O)cc2)C1=O` (racemic), in series [1], the CLH is over 15 mL/min/kg.

With `CN1CCN(C)C(c2ccc(Nc3nc(-c4ccc(F)c(NC(=O)c5cc6c(s5)CCCC6)c4)cn(C)c3=O)cc2)C1=O` (stereo in doubt; 8), the CLH in series [1] stood at 6 mL/min/kg.

The compound `CN1CCN(C)C(c2ccc(Nc3nc(-c4cccc(NC(=O)c5cc6c(s5)CCCC6)c4)cn(C)c3=O)cc2)C1=O` (racemic) came in with a CLH in series [1] of over 15 mL/min/kg.

With `CN1CCN(C)C(c2ccc(Nc3nc(-c4ccc(Cl)c(NC(=O)c5cc6c(s5)CCCC6)c4F)cn(C)c3=O)cc2)C1=O` (configuration not stated), the CLH in series [1] is under 6 mL/min/kg.

With `Cc1ccc(-c2cn(C)c(=O)c(Nc3ccc(C4C(=O)N(C)CCN4C)cc3)n2)c(Cl)c1NC(=O)c1cc2c(s1)CCCC2` (configuration not stated), in series [1], the CLH is under 6 mL/min/kg.

In series [1], `Cc1ccc(-c2cn(C)c(=O)c(Nc3ccc(C4C(=O)N(C)CCN4C)cc3)n2)c(C)c1NC(=O)c1cc2c(s1)CCCC2` (racemic) came in with a CLH of under 6 mL/min/kg.

In the case of `CN1CCn2nc(Nc3cc(-c4ccc(F)c(NC(=O)c5cc6ccccc6s5)c4)n[nH]c3=O)cc2C1`, the CLH is under 6 mL/min/kg in series [1], over 15 mL/min/kg in series [4] and over 15 mL/min/kg in series [2]. In addition, the IC50 in series [3] amounted to 50 nM.

On to `Cc1ccc(-c2cc(Nc3cc4n(n3)CCN(C)C4)c(=O)[nH]n2)c(F)c1NC(=O)c1cc2ccccc2s1`, for which the half-inhibitory concentration (IC50) in series [5] stood at 11 nM; in series [3], 200 nM. In addition, the CLH in series [1] and in series [2] was 6 mL/min/kg each time.

In the case of `Cc1ccc(-c2cn(C)c(=O)c(Nc3ccc([C@H]4C(=O)N(C)CCN4C)cc3)n2)c(F)c1NC(=O)c1cc2c(s1)CCCC2`, the CLH in series [1] is under 6 mL/min/kg.

As to `Cc1c(NC(=O)c2cc3ccccc3s2)cccc1-c1cc(Nc2cc3n(n2)CCN(C)C3)c(=O)[nH]n1`, the CLH in series [1] and in series [2] was over 15 mL/min/kg in each case. Besides, in series [3], the IC50 stood at 41 nM.

For `Cc1c(NC(=O)c2cc3c(s2)CCCC3)cccc1-c1cn(C)c(=O)c(Nc2ccc([C@@H]3C(=O)N(C)CCN3C)cc2)n1`, the CLH in series [1] is over 15 mL/min/kg.

With `CN1CCN(C)C(c2ccc(Nc3nc(-c4ccc(F)c(NC(=O)c5cc6c(s5)CCCC6)c4)cn(C)c3=O)cc2)C1=O` (stereo in doubt; 7), the CLH in series [1] is under 6 mL/min/kg.

In series [1], `Cc1c(-c2cn(C)c(=O)c(Nc3ccc(C4C(=O)N(C)CCN4C)cc3)n2)ccc(F)c1NC(=O)c1cc2c(s1)CCCC2` (stereo in doubt; 14) returned a CLH of under 6 mL/min/kg.

In series [1], `CN1CCN(C)C(c2ccc(Nc3nc(-c4ccc(C#N)c(NC(=O)c5cc6c(s5)CCCC6)c4)cn(C)c3=O)cc2)C1=O` (racemic) came in with a CLH of under 6 mL/min/kg.

Consider `Cc1c(-c2cc(Nc3cc4n(n3)CCN(C)C4)c(=O)[nH]n2)ccc(F)c1NC(=O)c1cnc(C(C)(C)C)cn1`, for which the concentration for half-maximal inhibition (IC50) in series [5] was 4 nM; in series [3], 90 nM. The CLH in series [1], in series [4] and in series [2] was 6 mL/min/kg in each case.

In the case of `Cc1c(-c2cc(Nc3cc4n(n3)CCN(C)C4)c(=O)[nH]n2)ccc(F)c1NC(=O)c1ccc(C(C)(C)C)cc1`, the values for the IC50 in series [5] and in series [3] were 4 nM and 54 nM, respectively. In addition, the results for the CLH in series [1], in series [4] and in series [2] were 6 mL/min/kg, 6 mL/min/kg and over 15 mL/min/kg, respectively.

For `CN1CCn2nc(Nc3cc(-c4ccc(F)c(NC(=O)c5cc6ccccc6s5)c4F)n[nH]c3=O)cc2C1`, the CLH was 6 mL/min/kg in series [4] and over 15 mL/min/kg in series [2]. Further, the IC50 in series [3] was found to be 18 nM.

Compound `CN1CCN(C)C(c2ccc(Nc3nc(-c4ccc(F)c(NC(=O)c5cc6c(s5)CCCC6)c4F)cn(C)c3=O)cc2)C1=O` (configuration not stated) registered a CLH in series [1] of 6 mL/min/kg.

`Cc1c(-c2cc(Nc3cc4n(n3)CCN(C)C4)c(=O)[nH]n2)ccc(F)c1NC(=O)c1cc2ncccc2s1`: the CLH in series [1], in series [4] and in series [2] was 6 mL/min/kg in each case. For the same compound, the IC50 in series [3] amounted to 680 nM.

As for `CN1CCN(C)C(c2ccc(Nc3nc(-c4cccc(NC(=O)c5cc6c(s5)CCCC6)c4Cl)cn(C)c3=O)cc2)C1=O` (racemic), the CLH in series [1] was over 15 mL/min/kg.

For `Cc1c(-c2cc(Nc3cc4n(n3)CCN(C)C4)c(=O)[nH]n2)ccc(F)c1NC(=O)c1cc2cccnc2s1`, the CLH in series [1] and in series [2] was 6 mL/min/kg in each case. Besides, the IC50 in series [3] came out at 740 nM.

Regarding `Cc1ccc(-c2cn(C)c(=O)c(Nc3ccc([C@@H]4C(=O)N(C)CCN4C)cc3)n2)c(F)c1NC(=O)c1cc2c(s1)CCCC2`, in series [1], the CLH was under 6 mL/min/kg.

Take `CN1CCN(C)C(c2ccc(Nc3nc(-c4ccc(Cl)c(NC(=O)c5cc6c(s5)CCCC6)c4Cl)cn(C)c3=O)cc2)C1=O` (racemic): the CLH in series [1] was 6 mL/min/kg.
